Laboratory results taken from US11034650B2, “Compounds useful for treating a Mannheimia haemolytica or Histophilus somni infection” (Intervet Inc., priority 2016, dated 2021).
Values after ≈ are worked out from the molar mass of the structure shown.

Tests used:
Type in all cases: cell-based
[1] = tested on: Mannheimia haemolytica MH 6357 (M7/2, reference strain, cattle infection strain); assay: MIC, broth-microdilution (CLSI VET01-A4), strain MH 6357; details: Mannheimia haemolytica strain MH 6357, broth-microdilution; unit assumed
Experimental: (§1) For example, representative compounds were tested against ***, Mannheimia haemolytica and Pasteurella multocida, using the conventional broth-dilution assay.
(§2) The Minimum inhibitory concentrations (MIC) of compounds according to the invention for a number of veterinary bacterial pathogens were determined by the broth-microdilution method according to CLSI document VET01-A4.
(§3) Microdilution trays containing a doubling dilution series of the test compound were used for the tests. The MIC results were interpreted according to the CLSI documents VET01-S3. The lowest concentration of compound at which no visible growth (i.e. no turbidity) detected by the unaided eye was recorded as the MIC.

[2] = tested on: Mannheimia haemolytica MH 6374 (ATCC 33396, reference strain); assay: MIC, broth-microdilution (CLSI VET01-A4), strain MH 6374; details: Mannheimia haemolytica strain MH 6374, broth-microdilution; unit assumed
Experimental: as §1, §2, §3

[3] = tested on: Mannheimia haemolytica MH 10720 (154, BRD field isolate); assay: MIC, broth-microdilution (CLSI VET01-A4), strain MH 10720; details: Mannheimia haemolytica strain MH 10720, broth-microdilution; unit assumed
Experimental: as §1, §2, §3

[4] = tested on: Mannheimia haemolytica MH 12587 (1071, BRD field isolate, macrolide-resistance: erm+, E+); assay: MIC, broth-microdilution (CLSI VET01-A4), strain MH 12587; details: Mannheimia haemolytica strain MH 12587, broth-microdilution; unit assumed
Experimental: as §1, §2, §3

[5] = tested on: Mannheimia haemolytica MH 13065 (XB0446-6003.9, BRD field isolate); assay: MIC, broth-microdilution (CLSI VET01-A4), strain MH 13065; details: Mannheimia haemolytica strain MH 13065, broth-microdilution; unit assumed
Experimental: as §1, §2, §3

[6] = tested on: Mannheimia haemolytica MH 13093 (XB0472-6014.1, BRD field isolate); assay: MIC, broth-microdilution (CLSI VET01-A4), strain MH 13093; details: Mannheimia haemolytica strain MH 13093, broth-microdilution; unit assumed
Experimental: as §1, §2, §3

[7] = tested on: Pasteurella multocida PM 6267 (P 2225 (L386), reference strain, mouse infection strain); assay: MIC, broth-microdilution (CLSI VET01-A4), strain PM 6267; details: Pasteurella multocida strain PM 6267, broth-microdilution; unit assumed
Experimental: as §1, §2, §3

[8] = tested on: Pasteurella multocida PM 10775 (080130003051, BRD field isolate); assay: MIC, broth-microdilution (CLSI VET01-A4), strain PM 10775; details: Pasteurella multocida strain PM 10775, broth-microdilution; unit assumed
Experimental: as §1, §2, §3

[9] = tested on: Pasteurella multocida PM 12080 (IV102277-0093, BRD field isolate); assay: MIC, broth-microdilution (CLSI VET01-A4), strain PM 12080; details: Pasteurella multocida strain PM 12080, broth-microdilution; unit assumed
Experimental: as §1, §2, §3

Row | Compound | MIC PM 6267 [7] [µg/mL] | MIC PM 10775 [8] [µg/mL] | MIC PM 12080 [9] [µg/mL] | MIC MH 6357 [1] [µg/mL] | MIC MH 6374 [2] [µg/mL] | MIC MH 10720 [3] [µg/mL] | MIC MH 12587 [4] [µg/mL] | MIC MH 13065 [5] [µg/mL] | MIC MH 13093 [6] [µg/mL]
1 | CC(C)[C@H](NC(=O)c1ccc(C#Cc2ccc(CN3CCOCC3)cc2)cc1)C(=O)NO [Compound 98] | ≤ 0.1 | ≤ 0.1 | ≤ 0.1 | 0.8 (≈ 1.84 µM) | 1.6 (≈ 3.67 µM) | 0.4 (≈ 0.918 µM) | 1.6 (≈ 3.67 µM) | 1.6 (≈ 3.67 µM) | 1.6 (≈ 3.67 µM)
2 | CC(C)[C@H](NC(=O)c1ccc(C#Cc2ccc(CN3CCS(=O)(=O)CC3)cc2)cc1)C(=O)NO [Compound 99] | ≤ 0.1 | ≤ 0.1 | 0.2 (≈ 0.414 µM) | 3.1 (≈ 6.41 µM) | 6.3 (≈ 13 µM) | 0.8 (≈ 1.65 µM) | 12.5 (≈ 25.8 µM) | 6.3 (≈ 13 µM) | 6.3 (≈ 13 µM)
3 | CC(C)[C@H](NC(=O)c1ccc(C#Cc2ccc(CN3CCC(c4ccccc4)CC3)cc2)cc1)C(=O)NO [Compound 100] | 0.4 (≈ 0.785 µM) | ≤ 0.1 | 0.8 (≈ 1.57 µM) | 3.1 (≈ 6.08 µM) | 6.3 (≈ 12.4 µM) | 0.8 (≈ 1.57 µM) | 12.5 (≈ 24.5 µM) | 3.1 (≈ 6.08 µM) | 6.3 (≈ 12.4 µM)
4 | CC(C)[C@H](NC(=O)c1ccc(C#Cc2ccc(CN3CCN(c4ccccn4)CC3)cc2)cc1)C(=O)NO [Compound 101] | 0.4 (≈ 0.782 µM) | ≤ 0.1 | 0.8 (≈ 1.56 µM) | 3.1 (≈ 6.06 µM) | 3.1 (≈ 6.06 µM) | 0.8 (≈ 1.56 µM) | 12.5 (≈ 24.4 µM) | 3.1 (≈ 6.06 µM) | 3.1 (≈ 6.06 µM)
5 | CC(C)[C@H](NC(=O)c1ccc(C#Cc2ccc(CN3CCc4ccccc4C3)cc2)cc1)C(=O)NO [Compound 102] | 0.4 (≈ 0.831 µM) | ≤ 0.1 | 0.8 (≈ 1.66 µM) | 3.1 (≈ 6.44 µM) | 3.1 (≈ 6.44 µM) | 0.8 (≈ 1.66 µM) | 12.5 (≈ 26 µM) | 3.1 (≈ 6.44 µM) | 6.3 (≈ 13.1 µM)
6 | CC(C)[C@H](NC(=O)c1ccc(C#Cc2ccc(CNCc3ccccc3)cc2)cc1)C(=O)NO [Compound 104] | ≤ 0.1 | ≤ 0.1 | 0.4 (≈ 0.878 µM) | 0.4 (≈ 0.878 µM) | 0.4 (≈ 0.878 µM) | ≤ 0.1 | 1.6 (≈ 3.51 µM) | 0.4 (≈ 0.878 µM) | 0.8 (≈ 1.76 µM)
7 | CC(C)[C@H](NC(=O)c1ccc(C#Cc2ccc(CN(C)Cc3ccccc3)cc2)cc1)C(=O)NO [Compound 105] | 0.2 (≈ 0.426 µM) | ≤ 0.1 | 0.8 (≈ 1.7 µM) | 6.3 (≈ 13.4 µM) | 3.1 (≈ 6.6 µM) | 0.8 (≈ 1.7 µM) | 6.3 (≈ 13.4 µM) | 3.1 (≈ 6.6 µM) | 3.1 (≈ 6.6 µM)

Now from value to molecule, other results behind:

Row | MIC PM 6267 [7] [µg/mL] | MIC PM 10775 [8] [µg/mL] | MIC PM 12080 [9] [µg/mL] | Compound | MIC MH 6357 [1] [µg/mL] | MIC MH 6374 [2] [µg/mL] | MIC MH 10720 [3] [µg/mL] | MIC MH 12587 [4] [µg/mL] | MIC MH 13065 [5] [µg/mL] | MIC MH 13093 [6] [µg/mL]
8 | 0.2 (≈ 0.408 µM) | ≤ 0.1 | 0.8 (≈ 1.63 µM) | CC(C)[C@H](NC(=O)c1ccc(C#Cc2ccc(CNCc3ccc(Cl)cc3)cc2)cc1)C(=O)NO [Compound 106] | 0.8 (≈ 1.63 µM) | 0.8 (≈ 1.63 µM) | 0.2 (≈ 0.408 µM) | 1.6 (≈ 3.27 µM) | 0.8 (≈ 1.63 µM) | 1.6 (≈ 3.27 µM)
9 | 0.2 (≈ 0.412 µM) | ≤ 0.1 | 0.4 (≈ 0.824 µM) | COc1ccc(CNCc2ccc(C#Cc3ccc(C(=O)N[C@H](C(=O)NO)C(C)C)cc3)cc2)cc1 [Compound 107] | 3.1 (≈ 6.38 µM) | 0.8 (≈ 1.65 µM) | 0.4 (≈ 0.824 µM) | 3.1 (≈ 6.38 µM) | 0.8 (≈ 1.65 µM) | 0.8 (≈ 1.65 µM)
10 | 0.4 (≈ 0.802 µM) | ≤ 0.1 | 1.6 (≈ 3.21 µM) | CC(C)[C@H](NC(=O)c1ccc(C#Cc2ccc(CNCc3ccc(N(C)C)cc3)cc2)cc1)C(=O)NO [Compound 108] | 3.1 (≈ 6.22 µM) | 1.6 (≈ 3.21 µM) | 1.6 (≈ 3.21 µM) | 3.1 (≈ 6.22 µM) | 1.6 (≈ 3.21 µM) | 3.1 (≈ 6.22 µM)
